Reference: publication PMC7265341, “Quantifying CDK inhibitor selectivity in live cells” (Nature Communications, 2020)
Like-named read-outs stand apart in the source and are kept apart here.

Experiments:
CDK8/Cyclin C = CDK8/Cyclin C (Homo sapiens, UniProt P49336); test: NanoBRET live-cell target engagement, NanoLuc-CDK8/Cyclin C in HEK-293; assay type: binding; details: for IC50: CDK8/C; for inhibition at 10 µM: read-out: Inhibition at 10µM (%), CDK8/C
CDK7 = CDK7 (Homo sapiens, UniProt P50613); test: NanoBRET live-cell target engagement, NanoLuc-CDK7 in HEK-293; assay type: binding; details: CDK7, read-out: Inhibition at 10µM (%)
Chain of CDK7 (P50613 whole entry): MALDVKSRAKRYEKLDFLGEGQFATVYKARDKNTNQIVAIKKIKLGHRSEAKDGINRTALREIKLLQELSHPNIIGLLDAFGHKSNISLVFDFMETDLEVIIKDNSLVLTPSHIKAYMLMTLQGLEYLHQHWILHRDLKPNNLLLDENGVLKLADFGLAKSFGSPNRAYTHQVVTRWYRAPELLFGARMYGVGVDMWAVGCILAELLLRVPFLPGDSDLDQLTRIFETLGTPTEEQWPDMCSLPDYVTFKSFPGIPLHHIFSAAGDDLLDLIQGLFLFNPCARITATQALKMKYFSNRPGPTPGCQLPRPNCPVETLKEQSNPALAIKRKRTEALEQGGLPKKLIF

CDK12/Cyclin K = CDK12/Cyclin K (Homo sapiens, UniProt Q9NYV4); test: NanoBRET live-cell target engagement, CDK12-NanoLuc/Cyclin K in HEK-293; assay type: binding; details: read-out: Inhibition at 10µM (%), CDK12/K
CDK16/Cyclin Y = CDK16/Cyclin Y (Homo sapiens, UniProt Q00536); test: NanoBRET live-cell target engagement, CDK16-NanoLuc/Cyclin Y in HEK-293; assay type: binding; details: read-out: Inhibition at 10µM (%), CDK16/Y
CDK17/Cyclin Y = CDK17/Cyclin Y (Homo sapiens, UniProt Q00537); test: NanoBRET live-cell target engagement, CDK17-NanoLuc/Cyclin Y in HEK-293; assay type: binding; details: read-out: Inhibition at 10µM (%), CDK17/Y
CDK1/Cyclin E1 = CDK1/Cyclin E1 (Homo sapiens, UniProt P06493); test: NanoBRET live-cell target engagement, CDK1-NanoLuc/Cyclin E1 in HEK-293; assay type: binding; details: CDK1/E1, read-out: Inhibition at 10µM (%)
Chain of CDK1/Cyclin E1 (P06493 whole entry): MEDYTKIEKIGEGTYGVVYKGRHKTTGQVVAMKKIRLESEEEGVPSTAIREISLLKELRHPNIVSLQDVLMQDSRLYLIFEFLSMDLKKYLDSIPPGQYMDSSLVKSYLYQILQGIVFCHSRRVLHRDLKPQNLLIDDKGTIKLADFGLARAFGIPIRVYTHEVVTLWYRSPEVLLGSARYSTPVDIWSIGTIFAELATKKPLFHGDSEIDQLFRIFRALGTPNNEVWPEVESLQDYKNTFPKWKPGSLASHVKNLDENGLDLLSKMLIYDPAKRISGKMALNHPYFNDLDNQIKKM
Chain of CDK1/Cyclin E1 (P24864 whole entry partner): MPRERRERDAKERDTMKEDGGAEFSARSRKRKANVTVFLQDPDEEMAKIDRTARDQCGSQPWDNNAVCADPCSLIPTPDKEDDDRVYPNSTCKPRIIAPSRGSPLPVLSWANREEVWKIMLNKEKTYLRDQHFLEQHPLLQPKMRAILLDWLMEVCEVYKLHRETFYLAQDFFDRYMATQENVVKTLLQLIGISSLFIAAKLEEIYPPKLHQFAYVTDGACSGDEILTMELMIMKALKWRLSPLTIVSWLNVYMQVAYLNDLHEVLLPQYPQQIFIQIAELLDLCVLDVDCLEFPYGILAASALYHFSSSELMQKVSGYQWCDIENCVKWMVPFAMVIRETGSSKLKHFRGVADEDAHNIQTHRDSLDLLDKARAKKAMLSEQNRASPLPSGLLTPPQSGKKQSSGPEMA

CDK2/Cyclin E1 = CDK2/Cyclin E1 (Homo sapiens, UniProt P24941); test: NanoBRET live-cell target engagement, CDK2-NanoLuc/Cyclin E1 in HEK-293; assay type: binding; details: for inhibition at 10 µM: CDK2/E1, read-out: Inhibition at 10µM (%)
CDK13/Cyclin K = CDK13/Cyclin K (Homo sapiens, UniProt Q14004); test: NanoBRET live-cell target engagement, CDK13-NanoLuc/Cyclin K in HEK-293; assay type: binding; details: CDK13/K, read-out: Inhibition at 10µM (%)
CDK19/Cyclin C = CDK19/Cyclin C (Homo sapiens, UniProt Q9BWU1); test: NanoBRET live-cell target engagement, NanoLuc-CDK19/Cyclin C in HEK-293; details: for IC50: CDK19/C; for inhibition at 10 µM: read-out: Inhibition at 10µM (%), CDK19/C
CDK18/Cyclin Y = CDK18/Cyclin Y (Homo sapiens, UniProt Q07002); test: NanoBRET live-cell target engagement, CDK18-NanoLuc/Cyclin Y in HEK-293; assay type: binding; details: read-out: Inhibition at 10µM (%), CDK18/Y
CDK9/Cyclin K = CDK9/Cyclin K (Homo sapiens, UniProt P50750); test: NanoBRET live-cell target engagement, NanoLuc-CDK9/Cyclin K in HEK-293; assay type: binding; details: CDK9/K, read-out: Inhibition at 10µM (%)
CDK15/Cyclin Y = CDK15/Cyclin Y (Homo sapiens, UniProt Q96Q40); test: NanoBRET live-cell target engagement, NanoLuc-CDK15/Cyclin Y in HEK-293; assay type: binding; details: read-out: Inhibition at 10µM (%), CDK15/Y
Chain of CDK15/Cyclin Y (Q96Q40 whole entry): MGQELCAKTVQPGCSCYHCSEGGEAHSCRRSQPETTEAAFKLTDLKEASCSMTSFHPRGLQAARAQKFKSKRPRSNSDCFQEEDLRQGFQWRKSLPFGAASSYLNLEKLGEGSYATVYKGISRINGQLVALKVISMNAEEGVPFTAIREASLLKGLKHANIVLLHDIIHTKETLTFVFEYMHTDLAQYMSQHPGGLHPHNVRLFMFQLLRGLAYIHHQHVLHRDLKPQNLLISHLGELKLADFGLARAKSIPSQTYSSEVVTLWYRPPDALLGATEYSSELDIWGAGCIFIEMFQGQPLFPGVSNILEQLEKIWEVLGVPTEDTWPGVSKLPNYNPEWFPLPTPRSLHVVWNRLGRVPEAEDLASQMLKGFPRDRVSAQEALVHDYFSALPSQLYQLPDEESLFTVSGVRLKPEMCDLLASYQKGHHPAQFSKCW
Chain of CDK15/Cyclin Y (Q8ND76 whole entry partner): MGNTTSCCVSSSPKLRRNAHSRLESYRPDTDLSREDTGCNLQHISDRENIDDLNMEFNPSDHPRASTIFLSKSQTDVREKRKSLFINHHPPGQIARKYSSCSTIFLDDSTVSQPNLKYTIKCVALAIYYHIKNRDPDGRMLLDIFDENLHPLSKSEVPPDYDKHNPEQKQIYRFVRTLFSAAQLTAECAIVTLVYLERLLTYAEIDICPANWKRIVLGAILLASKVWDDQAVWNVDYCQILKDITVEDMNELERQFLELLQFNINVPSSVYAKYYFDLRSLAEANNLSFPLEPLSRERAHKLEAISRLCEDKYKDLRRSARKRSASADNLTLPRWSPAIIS

CDK10/Cyclin L2 = CDK10/Cyclin L2 (Homo sapiens, UniProt Q15131); test: NanoBRET live-cell target engagement, CDK10-NanoLuc/Cyclin L2 in HEK-293; details: read-out: Inhibition at 10µM (%), CDK10/L2
Chain of CDK10/Cyclin L2 (Q15131 whole entry): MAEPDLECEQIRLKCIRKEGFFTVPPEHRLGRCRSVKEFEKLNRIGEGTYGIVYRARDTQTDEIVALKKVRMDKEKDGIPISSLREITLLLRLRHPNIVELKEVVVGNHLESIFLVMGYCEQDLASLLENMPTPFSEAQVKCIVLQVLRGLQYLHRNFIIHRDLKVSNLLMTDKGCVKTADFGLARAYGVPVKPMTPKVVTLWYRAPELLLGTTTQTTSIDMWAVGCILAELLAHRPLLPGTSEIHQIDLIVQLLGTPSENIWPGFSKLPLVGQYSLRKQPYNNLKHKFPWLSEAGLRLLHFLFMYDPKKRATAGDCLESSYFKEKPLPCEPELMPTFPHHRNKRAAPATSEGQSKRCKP

CDK14/Cyclin Y = CDK14/Cyclin Y (Homo sapiens, UniProt O94921); test: NanoBRET live-cell target engagement, CDK14-NanoLuc/Cyclin Y in HEK-293; assay type: binding; details: read-out: Inhibition at 10µM (%), CDK14/Y
CDK4/Cyclin D1 = CDK4/Cyclin D1 (Homo sapiens, UniProt P11802); test: NanoBRET live-cell target engagement, NanoLuc-CDK4/Cyclin D1 in HEK-293; assay type: binding; details: CDK4/D1, read-out: Inhibition at 10µM (%)
Chain of CDK4/Cyclin D1 (P11802 whole entry): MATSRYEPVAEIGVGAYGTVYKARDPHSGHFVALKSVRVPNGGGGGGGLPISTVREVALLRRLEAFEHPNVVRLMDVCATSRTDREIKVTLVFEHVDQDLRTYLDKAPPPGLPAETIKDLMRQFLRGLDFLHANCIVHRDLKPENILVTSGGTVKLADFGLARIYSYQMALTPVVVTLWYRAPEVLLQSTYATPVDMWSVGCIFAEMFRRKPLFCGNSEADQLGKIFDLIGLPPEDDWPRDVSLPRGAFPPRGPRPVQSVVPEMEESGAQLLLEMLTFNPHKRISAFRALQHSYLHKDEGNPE
Chain of CDK4/Cyclin D1 (P24385 whole entry partner): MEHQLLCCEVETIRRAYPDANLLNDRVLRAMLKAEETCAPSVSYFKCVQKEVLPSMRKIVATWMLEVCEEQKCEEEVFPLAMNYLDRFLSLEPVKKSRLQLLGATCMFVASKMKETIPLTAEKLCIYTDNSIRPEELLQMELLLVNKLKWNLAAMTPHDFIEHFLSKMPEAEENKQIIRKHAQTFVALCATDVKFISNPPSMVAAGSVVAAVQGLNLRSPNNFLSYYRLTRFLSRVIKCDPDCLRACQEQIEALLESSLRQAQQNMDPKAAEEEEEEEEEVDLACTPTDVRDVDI

CDK3/Cyclin E1 = CDK3/Cyclin E1 (Homo sapiens, UniProt Q00526); test: NanoBRET live-cell target engagement, CDK3-NanoLuc/Cyclin E1 in HEK-293; assay type: binding; details: CDK3/E1, read-out: Inhibition at 10µM (%)
Chain of CDK3/Cyclin E1 (Q00526 whole entry): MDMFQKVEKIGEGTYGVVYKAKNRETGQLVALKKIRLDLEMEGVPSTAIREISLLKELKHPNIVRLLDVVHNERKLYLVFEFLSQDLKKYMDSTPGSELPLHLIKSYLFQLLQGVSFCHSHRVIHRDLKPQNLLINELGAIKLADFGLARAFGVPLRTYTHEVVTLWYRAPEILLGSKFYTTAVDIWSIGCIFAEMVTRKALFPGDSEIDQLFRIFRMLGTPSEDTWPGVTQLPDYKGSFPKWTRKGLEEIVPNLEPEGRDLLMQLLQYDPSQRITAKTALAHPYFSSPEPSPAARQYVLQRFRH
Chain of CDK3/Cyclin E1 (P24864 whole entry partner): as the sequence (P24864 whole entry partner) above

CDK11B/Cyclin L2 = CDK11B/Cyclin L2 (Homo sapiens, UniProt P21127); test: NanoBRET live-cell target engagement, CDK11B-NanoLuc/Cyclin L2 in HEK-293; assay type: binding; details: read-out: Inhibition at 10µM (%), CDK11b/L2
Chain of CDK11B/Cyclin L2 (P21127 1-782 isoform P21127-2): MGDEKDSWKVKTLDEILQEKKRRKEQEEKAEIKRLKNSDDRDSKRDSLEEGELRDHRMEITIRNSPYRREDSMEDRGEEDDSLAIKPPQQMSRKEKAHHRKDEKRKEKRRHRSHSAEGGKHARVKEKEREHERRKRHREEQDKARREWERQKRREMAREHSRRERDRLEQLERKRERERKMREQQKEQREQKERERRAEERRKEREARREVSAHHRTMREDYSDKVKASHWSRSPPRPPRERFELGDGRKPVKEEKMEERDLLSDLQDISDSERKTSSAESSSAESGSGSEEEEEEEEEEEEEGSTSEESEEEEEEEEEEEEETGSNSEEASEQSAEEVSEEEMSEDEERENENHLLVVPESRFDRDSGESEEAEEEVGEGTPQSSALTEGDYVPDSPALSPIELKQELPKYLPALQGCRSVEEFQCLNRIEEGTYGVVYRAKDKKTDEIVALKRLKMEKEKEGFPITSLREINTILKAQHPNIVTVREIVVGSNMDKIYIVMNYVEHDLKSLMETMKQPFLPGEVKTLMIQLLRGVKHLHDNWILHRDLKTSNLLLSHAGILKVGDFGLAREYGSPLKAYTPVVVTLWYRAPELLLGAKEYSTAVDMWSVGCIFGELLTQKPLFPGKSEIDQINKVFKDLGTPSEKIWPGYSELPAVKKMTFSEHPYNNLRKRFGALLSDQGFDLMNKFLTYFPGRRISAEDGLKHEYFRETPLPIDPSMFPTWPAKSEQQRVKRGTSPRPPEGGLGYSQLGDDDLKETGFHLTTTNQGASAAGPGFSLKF

CDK20/Cyclin H = CDK20/Cyclin H (Homo sapiens, UniProt Q8IZL9); test: NanoBRET live-cell target engagement, NanoLuc-CDK20/Cyclin H in HEK-293; assay type: binding; details: read-out: Inhibition at 10µM (%), CDK20/H
CDK5/CDK5R1 = CDK5/CDK5R1 (Homo sapiens, UniProt Q00535); test: NanoBRET live-cell target engagement, CDK5-NanoLuc/CDK5R1 in HEK-293; assay type: binding; details: CDK5/CDK5R1, read-out: Inhibition at 10µM (%)
Chain of CDK5/CDK5R1 (Q00535 whole entry): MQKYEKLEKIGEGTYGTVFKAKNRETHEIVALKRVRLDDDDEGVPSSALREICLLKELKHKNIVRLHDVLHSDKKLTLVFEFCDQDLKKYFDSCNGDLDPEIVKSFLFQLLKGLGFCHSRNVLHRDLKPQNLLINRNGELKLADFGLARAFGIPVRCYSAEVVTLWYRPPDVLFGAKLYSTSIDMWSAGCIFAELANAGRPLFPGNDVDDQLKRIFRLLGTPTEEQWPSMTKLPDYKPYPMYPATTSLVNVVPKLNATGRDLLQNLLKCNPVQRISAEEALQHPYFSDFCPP
Chain of CDK5/CDK5R1 (Q15078 whole entry partner): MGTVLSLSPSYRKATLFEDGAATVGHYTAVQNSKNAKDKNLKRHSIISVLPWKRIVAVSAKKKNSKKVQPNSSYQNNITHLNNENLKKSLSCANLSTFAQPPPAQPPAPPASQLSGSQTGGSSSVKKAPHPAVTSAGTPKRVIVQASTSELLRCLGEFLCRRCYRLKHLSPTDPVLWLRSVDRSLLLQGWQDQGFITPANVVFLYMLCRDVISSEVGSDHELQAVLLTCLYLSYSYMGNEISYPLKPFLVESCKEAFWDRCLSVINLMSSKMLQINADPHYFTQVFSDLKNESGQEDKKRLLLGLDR

CDK6/Cyclin D1 = CDK6/Cyclin D1 (Homo sapiens, UniProt Q00534); test: NanoBRET live-cell target engagement, NanoLuc-CDK6/Cyclin D1 in HEK-293; assay type: binding; details: CDK6/D1, read-out: Inhibition at 10µM (%)
Chain of CDK6/Cyclin D1 (Q00534 whole entry): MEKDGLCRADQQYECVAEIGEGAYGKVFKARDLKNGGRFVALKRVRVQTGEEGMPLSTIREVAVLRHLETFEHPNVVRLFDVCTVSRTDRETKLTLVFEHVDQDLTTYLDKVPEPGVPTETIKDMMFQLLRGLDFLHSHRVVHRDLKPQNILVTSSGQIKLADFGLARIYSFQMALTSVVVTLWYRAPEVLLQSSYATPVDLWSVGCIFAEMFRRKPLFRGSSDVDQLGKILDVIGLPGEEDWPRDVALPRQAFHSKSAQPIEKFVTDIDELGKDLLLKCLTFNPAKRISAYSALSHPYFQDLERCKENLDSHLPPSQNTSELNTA
Chain of CDK6/Cyclin D1 (P24385 whole entry partner): as the sequence (P24385 whole entry partner) above

[1] = IC50 for CDK/cyclin complexes, live HEK-293, 2 h, mean ± S.E.M. (n=3) or mean (n=2)
[2] = LOG10([CCT251545 analog]) (LOG10(µM)) 0.045757
[3] = LOG10([CCT251545 analog]) (LOG10(µM)) 0.522879
[4] = LOG10([CCT251545 analog]) (LOG10(µM)) 1
[5] = LOG10([CCT251545 analog]) (LOG10(µM)) -0.43136
[6] = LOG10([CCT251545 analog]) (LOG10(µM)) -0.90849
[7] = LOG10([CCT251545 analog]) (LOG10(µM)) -1.38561
[8] = LOG10([CCT251545 analog]) (LOG10(µM)) -1.86273
[9] = LOG10([CCT251545 analog]) (LOG10(µM)) -2.33985
[10] = LOG10([CCT251545 analog]) (LOG10(µM)) -2.81697
[11] = LOG10([CCT251545 analog]) (LOG10(µM)) -3.29409
[12] = LOG10([CCT251545 analog]) (LOG10(µM)) -3.77121

COC1CN(C(=O)c2ccc3c(N)ncc(-c4ccc(-c5cnn(C)c5)cc4)c3n2)C1 [CCT251545 analog]
IC50 (CDK8/Cyclin C; IC50 (nM), experiment 1): 2.6 nM
IC50 (CDK8/Cyclin C; IC50 (nM), experiment 2): 2 nM
IC50 (CDK8/Cyclin C; IC50 (nM), experiment 3): 12 nM
IC50 (CDK8/Cyclin C; [1]): 6 nM
CDK8 Occupancy (%) (CDK8/Cyclin C; [2]): 92.3464%
CDK8 Occupancy (%) (CDK8/Cyclin C; [3]): 91.9478%
CDK8 Occupancy (%) (CDK8/Cyclin C; [4]): 84.2411%
CDK8 Occupancy (%) (CDK8/Cyclin C; [5]): 91.0176%
CDK8 Occupancy (%) (CDK8/Cyclin C; [6]): 91.5491%
CDK8 Occupancy (%) (CDK8/Cyclin C; [7]): 90.619%
CDK8 Occupancy (%) (CDK8/Cyclin C; [8]): 85.7027%
CDK8 Occupancy (%) (CDK8/Cyclin C; [9]): 65.2404%
CDK8 Occupancy (%) (CDK8/Cyclin C; [10]): 51.023%
CDK8 Occupancy (%) (CDK8/Cyclin C; [11]): 25.2458%
CDK8 Occupancy (%) (CDK8/Cyclin C; [12]): 19.9309%
inhibition at 10 µM (CDK8/Cyclin C; average): 96%
inhibition at 10 µM (CDK8/Cyclin C; experiment 1): 95%
inhibition at 10 µM (CDK8/Cyclin C; experiment 2): 96.9%
inhibition at 10 µM (CDK7; average): 9.4%
inhibition at 10 µM (CDK7; experiment 1): 11.5%
inhibition at 10 µM (CDK7; experiment 2): 7.3%
inhibition at 10 µM (CDK12/Cyclin K; average): 1.9%
inhibition at 10 µM (CDK12/Cyclin K; experiment 1): 5.9%
inhibition at 10 µM (CDK12/Cyclin K; experiment 2): -2.2%
inhibition at 10 µM (CDK16/Cyclin Y; experiment 1): 6.3%
inhibition at 10 µM (CDK16/Cyclin Y; experiment 2): 1.1%
inhibition at 10 µM (CDK17/Cyclin Y; average): 11.3%
inhibition at 10 µM (CDK17/Cyclin Y; experiment 1): 8.9%
inhibition at 10 µM (CDK17/Cyclin Y; experiment 2): 13.7%
inhibition at 10 µM (CDK1/Cyclin E1; average): 16.7%
inhibition at 10 µM (CDK1/Cyclin E1; experiment 1): 19.7%
inhibition at 10 µM (CDK1/Cyclin E1; experiment 2): 13.7%
inhibition at 10 µM (CDK2/Cyclin E1; average): -18.6%
inhibition at 10 µM (CDK2/Cyclin E1; experiment 1): -37.1%
inhibition at 10 µM (CDK2/Cyclin E1; experiment 2): -0.0714%
CDK2 Occupancy (%) (CDK2/Cyclin E1; [2]): 0.4583%
CDK2 Occupancy (%) (CDK2/Cyclin E1; [3]): 13.0609%
CDK2 Occupancy (%) (CDK2/Cyclin E1; [4]): 32.3087%
CDK2 Occupancy (%) (CDK2/Cyclin E1; [5]): 6.187%
CDK2 Occupancy (%) (CDK2/Cyclin E1; [6]): 0%
CDK2 Occupancy (%) (CDK2/Cyclin E1; [7]): 0.6874%
CDK2 Occupancy (%) (CDK2/Cyclin E1; [8]): 13.5192%
CDK2 Occupancy (%) (CDK2/Cyclin E1; [9]): 9.853%
CDK2 Occupancy (%) (CDK2/Cyclin E1; [10]): 9.166%
CDK2 Occupancy (%) (CDK2/Cyclin E1; [11]): 4.812%
CDK2 Occupancy (%) (CDK2/Cyclin E1; [12]): 2.291%
inhibition at 10 µM (CDK13/Cyclin K; average): 6.6%
inhibition at 10 µM (CDK13/Cyclin K; experiment 1): 6.4%
inhibition at 10 µM (CDK13/Cyclin K; experiment 2): 6.7%
IC50 (CDK19/Cyclin C; IC50 (nM), experiment 1): 9 nM
IC50 (CDK19/Cyclin C; IC50 (nM), experiment 2): 3 nM
IC50 (CDK19/Cyclin C; IC50 (nM), experiment 3): 17 nM
IC50 (CDK19/Cyclin C; [1]): 10 nM
CDK19 occupancy (%) (CDK19/Cyclin C; [2]): 84.8277%
CDK19 occupancy (%) (CDK19/Cyclin C; [3]): 83.6158%
CDK19 occupancy (%) (CDK19/Cyclin C; [4]): 72.7094%
CDK19 occupancy (%) (CDK19/Cyclin C; [5]): 89.9173%
CDK19 occupancy (%) (CDK19/Cyclin C; [6]): 87.736%
CDK19 occupancy (%) (CDK19/Cyclin C; [7]): 82.404%
CDK19 occupancy (%) (CDK19/Cyclin C; [8]): 73.4365%
CDK19 occupancy (%) (CDK19/Cyclin C; [9]): 46.7764%
CDK19 occupancy (%) (CDK19/Cyclin C; [10]): 31.7498%
CDK19 occupancy (%) (CDK19/Cyclin C; [11]): 15.7537%
CDK19 occupancy (%) (CDK19/Cyclin C; [12]): 2.424%
inhibition at 10 µM (CDK19/Cyclin C; average): 92.3%
inhibition at 10 µM (CDK19/Cyclin C; experiment 1): 93.4%
inhibition at 10 µM (CDK19/Cyclin C; experiment 2): 91.3%
inhibition at 10 µM (CDK18/Cyclin Y; average): 0.4%
inhibition at 10 µM (CDK18/Cyclin Y; experiment 1): -7.3%
inhibition at 10 µM (CDK18/Cyclin Y; experiment 2): 8.1%
inhibition at 10 µM (CDK9/Cyclin K; average): 7.2%
inhibition at 10 µM (CDK9/Cyclin K; experiment 1): 6.8%
inhibition at 10 µM (CDK9/Cyclin K; experiment 2): 7.5%
inhibition at 10 µM (CDK15/Cyclin Y; average): -9.7%
inhibition at 10 µM (CDK15/Cyclin Y; experiment 1): -3.1%
inhibition at 10 µM (CDK15/Cyclin Y; experiment 2): -16.3%
inhibition at 10 µM (CDK10/Cyclin L2; average): -11.6%
inhibition at 10 µM (CDK10/Cyclin L2; experiment 1): -2.4%
inhibition at 10 µM (CDK10/Cyclin L2; experiment 2): -20.8%
inhibition at 10 µM (CDK14/Cyclin Y; average): -6.1%
inhibition at 10 µM (CDK14/Cyclin Y; experiment 1): -1.1%
inhibition at 10 µM (CDK14/Cyclin Y; experiment 2): -11%
inhibition at 10 µM (CDK4/Cyclin D1; average): 12.4%
inhibition at 10 µM (CDK4/Cyclin D1; experiment 1): 11.6%
inhibition at 10 µM (CDK4/Cyclin D1; experiment 2): 13.1%
inhibition at 10 µM (CDK3/Cyclin E1; average): 0.5%
inhibition at 10 µM (CDK3/Cyclin E1; experiment 1): 3.3%
inhibition at 10 µM (CDK3/Cyclin E1; experiment 2): -2.3%
inhibition at 10 µM (CDK11B/Cyclin L2; average): 0.563%
inhibition at 10 µM (CDK11B/Cyclin L2; experiment 1): 2.1%
inhibition at 10 µM (CDK11B/Cyclin L2; experiment 2): -1%
inhibition at 10 µM (CDK20/Cyclin H; experiment 1): 12.7%
inhibition at 10 µM (CDK20/Cyclin H; experiment 2): 4.1%
inhibition at 10 µM (CDK5/CDK5R1; average): 16.2%
inhibition at 10 µM (CDK5/CDK5R1; experiment 1): 17.8%
inhibition at 10 µM (CDK5/CDK5R1; experiment 2): 14.5%
inhibition at 10 µM (CDK6/Cyclin D1; average): 17.9%
inhibition at 10 µM (CDK6/Cyclin D1; experiment 1): 15.1%
inhibition at 10 µM (CDK6/Cyclin D1; experiment 2): 20.8%
